The results in this text go back to US20260209222A1, “CBL-B MODULATORS AND USES THEREOF” (Nimbus Clio, Inc., priority 2022, published 2026).

Each structure is given as a SMILES string.

For assay [1], the target named is T1, Recombinant human Cbl-b (aa 36-427) (Homo sapiens, UniProt Q13191).
T1 construct: Recombinant human Cbl-b (aa 36-427) was expressed in E coli; biotin (biotinylated in vitro); made in house; host or cells: E. coli
Briefly: Cbl-b Biochemical Assay (TR-FRET). The following applies: 6 nM Cbl-b, 1-2.5 nM Src-Zap70, 0.5 mM ATP; HTRF signal at 520 nm. The procedure: Cbl-b Biochemical Assay (TR-FRET)
Recombinant human Cbl-b (aa 36-427) was expressed in E coli, purified and biotinylated in vitro. The protein was diluted to 12 nM in freshly prepared assay buffer consisting of 50 mM HEPES, pH 7.0, 100 mM NaCl, 5 mM MgCl2, 0.01% Triton-X 100, 0.01% BSA and 1 mM DTT. Recombinant human Src (aa 254-536)-GSSGSS-Zap-70 (aa 281-297) fusion protein was expressed in E coli and purified. Protein was diluted in assay buffer to 2-5 nM and supplemented with ATP to 1 mM. Fluorescein-BODIPY labeled UBED2D(C85K)-Ub was prepared by conjugating ubiquitin (Ub) labeled at its N-terminus with Fluorescein-BODIPY maleimide (ThermoFisher Catalog no B10250) to E coli expressed and purified UBED2D(C85K) [see Dou et al Nature Structural and Molecular Biology 8: 982-987, 2013]. Recombinant human UBE2D2(C85K) was expressed in E coli, purified and ubiquitinated and Bodipy labelled in vitro. Protein was diluted to 200 nM in assay buffer without MgCl2 (or Cisbio PPI buffer). Streptavidin-Terbium was added to 2 nM and EDTA to 10 mM, to provide a binding assay mix. Compounds were dissolved in DMSO and diluted to prepare a ten-point dilution series. 100 nl of each compound concentration was dispensed in duplicate in a 384 well black assay plate using acoustic dispensing. Wells for maximum signal controls received 100 nl of DMSO only and wells for minimum signal controls received 100 nl of a reference inhibitor compound at a final assay concentration of 100 mM to produce 100% inhibition. 5 μl of diluted Cbl-b enzyme was added to all wells of the assay plate and incubated at RT for 30-60 min. The enzyme assay was initiated by addition of 5 μl of Src-Zap/ATP mix to all wells, and the plate incubated at RT for 60 min. The enzyme reaction was terminated and the binding reaction was initiated by adding 10p of binding assay mix to all wells and incubating the plate at RT for 60 min prior to assay read. Final assay conditions consisted of 6 nM Cbl-b, 1-2.5 nM Src-Zap70, 0.5 mM ATP, 1% (v/v) DMSO (enzyme reaction) and 100 nM UBE2D2(C85K)-Ub-FL-BODIPY, 5 mM EDTA, 1 nM Streptavidin-Tb (binding reaction). The HTRF assay signal was measured at 520 nm on an Envision plate reader, with reference signal at 485 or 620 nm. Data was normalized using maximum and minimum assay controls: % Inhibition=100−(100*((maximum control)−unknown)/(maximum control−minimum control)). A 4-parameter dose-response equation was used to fit the normalized dose-response data and derive an IC50 for test compounds.

The subject of assay [2] is Recombinant human c-Cbl (aa 47-435). The assay can be described thus: c-Cbl Biochemical Assay (TR-FRET). The note with it: ratio from the Cbl-b and c-Cbl TR-FRET biochemical assays. The procedure:
c-Cbl Biochemical Assay (TR-FRET)
Recombinant human c-Cbl (aa 47-435) was expressed in E coli, purified and biotinylated in vitro. The protein was diluted to 12 nM in freshly prepared assay buffer consisting of 50 mM HEPES, pH 7.0, 100 mM NaCl, 5 mM MgCl2, 0.01% Triton-X 100, 0.01% BSA and 1 mM DTT. Recombinant human Src (aa 254-536)-GSSGSS-Zap-70 (aa 281-297) fusion protein was expressed in E coli and purified. Protein was diluted in assay buffer to 5-20 nM and ATP was added to 1 mM. Recombinant human UBE2D2(C85K) was expressed in E coli, purified and ubiquitinated and Bodipy labelled in vitro. Protein was diluted to 200 nM in assay buffer without MgCl2 (or Cisbio PPI buffer). Streptavidin-Terbium was added to 2 nM and EDTA to 10 mM, to provide a binding assay mix. Compounds were dissolved in DMSO and diluted to prepare a ten-point half log dilution series. 100 nl of each compound concentration was dispensed in duplicate in a 384 well black assay plate using acoustic dispensing. Wells for maximum signal controls received 100 nl of DMSO only and wells for minimum controls received 100 nl of a reference inhibitor compound at a final assay concentration of 100 mM to produce 100% inhibition. 5 μl of diluted c-Cbl enzyme was added to all wells of the assay plate and incubated at RT for 30 min. The enzyme assay was initiated by addition of 5 d of Src-Zap/ATP mix to all wells, and the plate incubated at RT for 60-90 min. The enzyme reaction was terminated and the binding reaction was initiated by adding 10p of binding assay mix to all wells and incubating the plate at RT for 60 min prior to assay read. Final assay conditions consisted of 6 nM c-Cbl. 2.5-10 nM Src-Zap70, 0.5 mM ATP. 1% (v/v) DMSO (enzyme reaction) and 100 nM UBE2D2(C85K)-Ub-FL-BODIPY, 5 mM EDTA, 1 nM Streptavidin-Tb (binding reaction). The HTRF assay signal was measured at 520 nm on an Envision plate reader, with reference signal at 485 or 620 nm. Data was normalized using maximum and minimum assay controls: % Inhibition=100−(100*((maximum control)−unknown)/(maximum control−minimum control)). A 4-parameter dose-response equation was used to fit the normalized dose-response data and derive an IC50 for test compounds.

T1 sequence (Q13191 36-427): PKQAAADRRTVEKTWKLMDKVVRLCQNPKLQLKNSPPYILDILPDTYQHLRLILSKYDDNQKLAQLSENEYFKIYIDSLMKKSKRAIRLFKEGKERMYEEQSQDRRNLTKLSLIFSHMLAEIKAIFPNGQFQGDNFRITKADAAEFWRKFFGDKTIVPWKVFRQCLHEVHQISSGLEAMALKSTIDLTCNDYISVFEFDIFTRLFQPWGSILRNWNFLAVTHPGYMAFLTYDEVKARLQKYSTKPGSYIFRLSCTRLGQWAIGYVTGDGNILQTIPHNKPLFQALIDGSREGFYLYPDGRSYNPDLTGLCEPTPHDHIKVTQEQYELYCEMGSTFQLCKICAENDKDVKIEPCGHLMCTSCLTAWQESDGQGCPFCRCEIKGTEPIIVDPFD

Regarding `C[C@H]1CCCN(Cc2cc(C(F)(F)F)c3oc(-c4cccc([C@H](c5nncn5C)C5CCC5)c4)nc3c2)C1` (single isomer, unassigned) [I-33], the IC50 in assay [1] was less than 200 nM. Besides, the “Cbl-b/c-Cbl Selectivity” value in assay [2] is on record as 10. Taken in the same sequence, the figures for `C[C@H]1CCCN(Cc2cc(C(F)(F)F)c3oc(-c4cccc([C@H](c5nncn5C)[C@H]5C[C@@H](C(F)(F)F)C5)c4)nc3c2)C1` (single isomer, unassigned) [I-59] were less than 200 nM and 19. As to `CCNc1cc(-c2cc(C#N)ccc2-c2nncn2C)cc(-c2nc3cc(CNCC4(C#N)CCCC4)cc(C(F)(F)F)c3o2)n1` [I-4], the IC50 in assay [1] lay in the range of 200 to 5000 nM. Further, the “Cbl-b/c-Cbl Selectivity” value in assay [2] amounted to 8.

For the compound `CC(C)NCc1cc(C(F)(F)F)c2oc(-c3cccc([C@]4(c5nncn5C)C[C@@H](C)C4)c3)nc2c1` [I-5, Isopropyl[(2-{3-[(1r,3s)-3-methyl-1-(4-methyl-1,2,4-triazol-3-yl)cyclobutyl]phenyl}-7-(trifluoromethyl)-1,3-benzoxazol-5-yl)methyl]amine], the IC50 in assay [1] was 200 to 5000 nM. In addition, the “Cbl-b/c-Cbl Selectivity” value in assay [2] worked out at 12. With `CO[C@H]1CCCN(Cc2cc(C(F)(F)F)c3oc(-c4cccc([C@]5(c6nncn6C)C[C@@H](C)C5)c4)nc3c2)C1` [I-6, 5-{1[(3S)-3-Methoxypiperidin-1-yl]methyl}-2-{3-[(1r,3s)-3-methyl-1-(4-methyl-1,2,4-triazol-3-yl)cyclobutyl]phenyl}-7-(trifluoromethyl)-1,3-benzoxazole], the IC50 in assay [1] lay in the range of 200 to 5000 nM. Also, in assay [2], the “Cbl-b/c-Cbl Selectivity” value amounted to 10.

As to `CO[C@@H]1CCCN(Cc2cc(C(F)(F)F)c3oc(-c4cccc([C@]5(c6nncn6C)C[C@@H](C)C5)c4)nc3c2)C1` [I-7], the IC50 in assay [1] was in the range of 200 to 5000 nM. Moreover, the “Cbl-b/c-Cbl Selectivity” value in assay [2] is given as 12. Taken in the same sequence, the figures for `Cn1cnnc1[C@]1(c2cccc(-c3nc4cc(CN5CCC6(CC6)C5)cc(C(F)(F)F)c4o3)c2)C[C@H](C)C1` [I-9, 5-{5-Azaspiro[2.4]heptan-5-ylmethyl}-2-{3-[(1r,3s)-3-methyl-1-(4-methyl-1,2,4-triazol-3-yl)cyclobutyl]phenyl}-7-(trifluoromethyl)-1,3-benzoxazole] were less than 200 nM and 18. `CN(Cc1cc(C(F)(F)F)c2oc(-c3cccc([C@]4(c5nncn5C)C[C@@H](C)C4)c3)nc2c1)CC1CCC1` [I-10, 1-Cyclobutyl-N-methyl-N-((2-(3-((1s,3s)-3-methyl-1-(4-methyl-4H-1,2,4-triazol-3-yl)cyclobutyl)phenyl)-7-(trifluoromethyl)benzo[d]oxazol-5-yl)methyl)methanamine]: the IC50 in assay [1] was less than 200 nM. The “Cbl-b/c-Cbl Selectivity” value in assay [2] is 10. As to `Cn1cnnc1-c1cc(F)ccc1-c1cc(NCCC#N)nc(-c2nc3cc(CN4CCC5(CC5)C4)cc(C(F)(F)F)c3o2)c1` [I-12, 3-{[6-(5-{5-azaspiro[2.4]heptan-5-ylmethyl}-7-(trifluoromethyl)-1,3-benzoxazol-2-yl)-4-[4-fluoro-2-(4-methyl-1,2,4-triazol-3-yl)phenyl]pyridin-2-yl]amino}propanenitrile], in assay [1], the IC50 is less than 200 nM. In addition, in assay [2], the “Cbl-b/c-Cbl Selectivity” value turned out to be 7. Taken in the same sequence, the figures for `Cn1cnnc1-c1cc(F)ccc1-c1cc(NCCC#N)nc(-c2nc3cc(CO)cc(C(F)(F)F)c3o2)c1` [I-14] were 200 to 5000 nM and 7. On to `Cn1cnnc1-c1ccc(C#N)cc1-c1cc(NCCC#N)nc(-c2nc3cc(CNCC(C)(C)O)cc(C(F)(F)F)c3o2)c1` [I-15, 3-{2-[(2-Cyanoethyl)amino]-6-(5-{[(2-hydroxy-2-methylpropyl)amino]methyl}-7-(trifluoromethyl)-1,3-benzoxazol-2-yl)pyridin-4-yl}-4-(4-methyl-1,2,4-triazol-3-yl)benzonitrile], for which the IC50 in assay [1] was less than 200 nM. In addition, in assay [2], the “Cbl-b/c-Cbl Selectivity” value worked out at 7. Taken in the same sequence, the figures for `Cn1cnnc1-c1ccc(C#N)cc1-c1cc(NCCC#N)nc(-c2nc3cc(CN4CCC5(CC5)C4)cc(C(F)(F)F)c3o2)c1` [I-16, 3-[2-(5-{5-azaspiro[2.4]heptan-5-ylmethyl}-7-(trifluoromethyl)-1,3-benzoxazol-2-yl)-6-[(2-cyanoethyl)amino]pyridin-4-yl]-4-(4-methyl-1,2,4-triazol-3-yl)benzonitrile] were 200 to 5000 nM and 7.

For `Cn1cnnc1-c1ccc(C#N)cc1-c1cc(NCC2(CC#N)CC2)nc(-c2nc3cc(CN[C@@H]4CCC[C@@H]4O)cc(C(F)(F)F)c3o2)c1` [I-27], the half-maximal inhibitory concentration (IC50) in assay [1] is less than 200 nM. Moreover, the “Cbl-b/c-Cbl Selectivity” value in assay [2] was 1. Taken in the same sequence, the figures for `Cn1cnnc1-c1cc(F)ccc1-c1cc(NC[C@@H](O)CC#N)nc(-c2nc3cc(CN4CCC5(CC5)C4)cc(C(F)(F)F)c3o2)c1` [I-29] were less than 200 nM and 14. Taken in the same sequence, the figures for `C[C@H]1CCCN(Cc2cc(C(F)(F)F)c3oc(-c4cccc([C@@H](c5nncn5C)C5CCC5)c4)nc3c2)C1` [I-34] were more than 5000 nM and 4. Taken in the same sequence, the figures for `C[C@H]1CCCN(Cc2cc(C(F)(F)F)c3oc(-c4cccc(C(c5nncn5C)C5CCC5)c4)nc3c2)C1` (stereo partly drawn) [I-48] were less than 200 nM and 9.

On to `CN(Cc1cc(C(F)(F)F)c2oc(-c3cc(-c4cc(C#N)ccc4-c4nncn4C)cc(NCC4(CC#N)CC4)n3)nc2c1)[C@@H]1CCC[C@@H]1O` [I-49], for which the IC50 in assay [1] is less than 200 nM. Further, the “Cbl-b/c-Cbl Selectivity” value in assay [2] is on record as 3. Taken in the same sequence, the figures for `Cn1cnnc1-c1ccc(C#N)cc1-c1cc(NC[C@@H](O)CC#N)nc(-n2cc3c(C(F)(F)F)cc(CN4CCC5(CCC5)C4)cn3c2=O)c1` [I-50, (S)-3-(2-(6-((6-Azaspiro[3.4]octan-6-yl)methyl)-3-oxo-8-(trifluoromethyl)imidazo[1,5-a]pyridin-2(3H)-yl)-6-((3-cyano-2-hydroxypropyl)amino)pyridin-4-yl)-4-(4-methyl-4H-1,2,4-triazol-3-yl)benzonitrile] were less than 200 nM and 21.

Turning to `C[C@H]1CCCN(Cc2cc(C(F)(F)F)c3oc(-c4cccc(C(c5nncn5C)C5COC5)c4)nc3c2)C1` (stereo partly drawn) [I-51], the IC50 in assay [1] was 200 to 5000 nM. In assay [2], the “Cbl-b/c-Cbl Selectivity” value is given as 7. As for `Cn1cnnc1[C@@H](c1cccc(-c2nc3cc(CN4CCC5(CCC5)C4)cc(C(F)(F)F)c3o2)c1)[C@H]1C[C@H](C(F)(F)F)C1` [I-61], in assay [1], the IC50 was more than 5000 nM.
